Experimental findings from BindingDB's records for doi:10.1021/jm051296s (University of Southern California, 2006) are described below.

Some results are limits rather than exact numbers.

This assay concerns the target Integrin alpha-V/beta-3 (Homo sapiens, UniProt P05106+P06756). The assay is described as follows: Inhibition of [125I]echistatin binding to integrin alphaVbeta3 receptor.

Chain of Integrin alpha-V/beta-3 (P05106 27-788 limits assumed): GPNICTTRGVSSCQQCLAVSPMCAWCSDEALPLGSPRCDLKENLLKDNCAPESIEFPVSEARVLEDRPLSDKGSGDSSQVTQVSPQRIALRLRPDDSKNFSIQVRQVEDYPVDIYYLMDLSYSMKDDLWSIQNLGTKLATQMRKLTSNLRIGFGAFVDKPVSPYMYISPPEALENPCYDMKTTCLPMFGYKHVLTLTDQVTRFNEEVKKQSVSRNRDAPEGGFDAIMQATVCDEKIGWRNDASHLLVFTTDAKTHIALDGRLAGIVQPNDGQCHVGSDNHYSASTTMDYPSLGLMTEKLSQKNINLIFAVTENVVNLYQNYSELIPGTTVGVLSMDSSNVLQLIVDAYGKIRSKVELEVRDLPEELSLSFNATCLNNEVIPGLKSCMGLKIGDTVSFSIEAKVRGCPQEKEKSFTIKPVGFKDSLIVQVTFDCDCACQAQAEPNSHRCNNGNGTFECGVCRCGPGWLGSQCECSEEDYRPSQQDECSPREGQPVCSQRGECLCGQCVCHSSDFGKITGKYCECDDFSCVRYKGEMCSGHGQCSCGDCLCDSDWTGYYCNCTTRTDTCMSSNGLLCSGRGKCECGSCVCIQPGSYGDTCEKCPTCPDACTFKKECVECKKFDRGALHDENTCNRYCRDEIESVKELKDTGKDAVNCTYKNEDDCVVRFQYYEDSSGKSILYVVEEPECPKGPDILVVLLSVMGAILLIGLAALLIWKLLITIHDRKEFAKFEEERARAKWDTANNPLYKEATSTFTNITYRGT
Chain of Integrin alpha-V/beta-3 (P06756 31-889 limits assumed): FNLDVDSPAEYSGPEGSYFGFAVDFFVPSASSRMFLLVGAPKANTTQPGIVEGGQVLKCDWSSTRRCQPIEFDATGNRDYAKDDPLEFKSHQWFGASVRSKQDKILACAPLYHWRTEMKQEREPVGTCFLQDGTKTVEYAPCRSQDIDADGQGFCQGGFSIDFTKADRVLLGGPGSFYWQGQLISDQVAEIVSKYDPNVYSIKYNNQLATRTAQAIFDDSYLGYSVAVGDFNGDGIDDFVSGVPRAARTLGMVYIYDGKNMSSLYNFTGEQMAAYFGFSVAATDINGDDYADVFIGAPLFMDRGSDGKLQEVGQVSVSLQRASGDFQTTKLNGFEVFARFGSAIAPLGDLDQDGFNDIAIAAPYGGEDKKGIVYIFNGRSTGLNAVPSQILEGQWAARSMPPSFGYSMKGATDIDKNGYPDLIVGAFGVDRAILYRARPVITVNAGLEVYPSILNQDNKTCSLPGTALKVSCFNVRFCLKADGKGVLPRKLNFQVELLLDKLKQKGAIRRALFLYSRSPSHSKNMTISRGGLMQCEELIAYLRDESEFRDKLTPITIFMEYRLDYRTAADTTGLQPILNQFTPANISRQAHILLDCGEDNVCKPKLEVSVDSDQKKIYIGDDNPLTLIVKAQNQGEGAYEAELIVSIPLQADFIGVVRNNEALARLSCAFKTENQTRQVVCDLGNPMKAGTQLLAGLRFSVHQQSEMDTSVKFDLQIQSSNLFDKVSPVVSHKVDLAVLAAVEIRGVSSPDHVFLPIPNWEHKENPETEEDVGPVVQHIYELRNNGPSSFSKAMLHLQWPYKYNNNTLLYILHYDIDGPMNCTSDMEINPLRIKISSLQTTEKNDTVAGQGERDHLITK
Chain of Integrin alpha-V/beta-3 (P06756 891-1048 limits assumed): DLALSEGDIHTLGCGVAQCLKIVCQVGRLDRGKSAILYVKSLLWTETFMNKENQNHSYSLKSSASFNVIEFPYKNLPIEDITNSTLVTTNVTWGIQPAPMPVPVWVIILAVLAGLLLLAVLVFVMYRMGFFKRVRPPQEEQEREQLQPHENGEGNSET

On to `O=C(O)c1cccc(-c2ccc(CN=Nc3nc4nonc4nc3Nc3ccc(F)cc3)o2)c1` [3-(5-{[6-(4-fluoro-phenylamino)-[1,2,5]oxadiazolo[3,4-b]pyrazin-5-yl]-hydrazonomethyl}-furan-2-yl)-benzoic acid], for which the IC50 was > 1000 nM.
